Test results as given in paper PMC4102417 (PLoS Neglected Tropical Diseases, 2014).
Structures can show the parent of a compound that is named as a salt. Where two headings read alike, the source gives them in different places.

Legend:
[1] = test system: T. cruzi (Tulahuen strain); assay: microbe, parasite or virus in culture; type: cell-based, Trypanosoma cruzi; conditions: for activity at 10 µM: 120 h, read-out: T. cruzi % growth @ 10 uM (Amastigotes)
Description: Compounds were tested against T. cruzi (Tulahuen strain) stably expressing the beta-galactosidase gene as previously described. […] Fibroblasts were plated at a density of 2×10^3 per well in 96 well tissue culture plates. After 24 hours of incubation, 1×10^4 trypomastigotes/well were added to the fibroblasts and incubated for 4 hours before addition of the test compounds from the Spectrum Collection (10 µM final concentration). Cultures were incubated at 37°C for 5 days, then developed with chlorophenol red β-D-galactopyranoside as previously described. The percent inhibition is reported with standard deviation of the mean. […] Z-prime values were calculated for each 96-well plate based on positive (4 wells) and negative controls (4 wells).

3T3 fibroblast cells = assay: cells; type: cell-based, murine; conditions: for activity at 10 µM: Mus musculus, NIH3T3, 72 h, read-out: Mammalian (3T3) cell % growth at 10 uM
[2] = Trypanosoma cruzi, TULAHUEN, Fibroblast, 10 uM, Table S2

Compound	activity at 10 µM [1, 2]	activity at 10 µM (3T3 fibroblast cells; 10 uM, Table S2)	other results
CCOC(=O)C(CCc1ccccc1)NC1CCc2ccccc2N(CC(=O)O)C1=O (stereo not drawn) [BENAZEPRIL HYDROCHLORIDE, 2-{3-[(1-ethoxy-1-oxo-4-phenylbutan-2-yl)amino]-2-oxo-2,3,4,5-tetrahydro-1H-1-benzazepin-1-yl}acetic acid hydrochloride]	1%	66.8%	
CC(Cc1cccc(C(F)(F)F)c1)NCCOC(=O)c1ccccc1 (stereo not drawn) [BENFLUOREX, 2-({1-[3-(trifluoromethyl)phenyl]propan-2-yl}amino)ethyl benzoate]	21.6%	96.6%	
CC(C)COCC(CN(Cc1ccccc1)c1ccccc1)N1CCCC1 (stereo not drawn) [BEPRIDIL, N-benzyl-N-[3-(2-methylpropoxy)-2-(pyrrolidin-1-yl)propyl]aniline hydrochloride]	24.4%	89.6%	
COc1ccc2cc3[n+](cc2c1OC)CCc1cc2c(cc1-3)OCO2 [BERBERINE, 16,17-dimethoxy-5,7-dioxa-13$l^5-azapentacyclo[11.8.0.0^{2,10}.0^{4,8}.0^{15,20}]henicosa-1(21),2,4(8),9,13,15,17,19-octaen-13-ylium]	4.1%	75.8%	
C=C(C)C1CCC2(CO)CCC3(C)C(CCC4C5(C)CCC(O)C(C)(C)C5CCC43C)C12 (stereo not drawn) [BETULIN, 5-(hydroxymethyl)-1,2,14,18,18-pentamethyl-8-(prop-1-en-2-yl)pentacyclo[11.8.0.0^{2,10}.0^{5,9}.0^{14,19}]henicosan-17-ol]	9.7%	100%	
c1ccc(-c2ccc(C(c3ccccc3)n3ccnc3)cc2)cc1 (stereo not drawn) [BIFONAZOLE, 1-[phenyl(4-phenylphenyl)methyl]-1H-imidazole]	0.7%	93.6%	
O=C(O)CC[N+](=O)[O-] [BOVINOCIDIN, 3-nitropropanoic acid]	14.1%		activity at 10 µM (3T3 fibroblast cells): 88.6%
CC(C)CC1C(=O)N2CCCC2C2(O)OC(NC(=O)C3C=C4c5cccc6[nH]c(Br)c(c56)CC4N(C)C3)(C(C)C)C(=O)N12 (stereo not drawn) [BROMOCRIPTINE MESYLATE, 10-bromo-N-[2-hydroxy-7-(2-methylpropyl)-5,8-dioxo-4-(propan-2-yl)-3-oxa-6,9-diazatricyclo[7.3.0.0^{2,6}]dodecan-4-yl]-6-methyl-6,11-diazatetracyclo[7.6.1.0^{2,7}.0^{12,16}]hexadeca-1(15),2,9,12(16),13-pentaene-4-carboxamide; methanesulfonic acid]	2%	92.1%	
CCC1(O)C(=O)OCc2c1cc1n(c2=O)Cc2cc3ccccc3nc2-1 (stereo not drawn) [CAMPTOTHECIN, 19-ethyl-19-hydroxy-17-oxa-3,13-diazapentacyclo[11.8.0.0^{2,11}.0^{4,9}.0^{15,20}]henicosa-1(21),2,4(9),5,7,10,15(20)-heptaene-14,18-dione]	3.9%		activity at 10 µM (3T3 fibroblast cells): 94.3%
CC(=O)OC1(C(C)=O)CCC2C3C=C(Cl)C4=CC(=O)CCC4(C)C3CCC21C (stereo not drawn) [CHLORMADINONE ACETATE, 14-acetyl-8-chloro-2,15-dimethyl-5-oxotetracyclo[8.7.0.0^{2,7}.0^{11,15}]heptadeca-6,8-dien-14-yl acetate]	9.7%	97.4%	
CN(C)CCCN1c2ccccc2Sc2ccc(Cl)cc21 [CHLORPROMAZINE, [3-(2-chloro-10H-phenothiazin-10-yl)propyl]dimethylamine]	14.2%	99.3%	
COC(=O)CCC(C)C1CCC2C3C(O)CC4CC(O)CCC4(C)C3CC(O)C12C (stereo not drawn) [CHOLIC ACID, METHYL ESTER, methyl 4-{5,9,16-trihydroxy-2,15-dimethyltetracyclo[8.7.0.0^{2,7}.0^{11,15}]heptadecan-14-yl}pentanoate]	22.6%	81%	
CCN(CC)CCOc1ccc(C(=C(Cl)c2ccccc2)c2ccccc2)cc1 [CLOMIPHENE, {2-[4-(2-chloro-1,2-diphenylethenyl)phenoxy]ethyl}diethylamine]	12.9%	100%	
Clc1ccccc1C(c1ccccc1)(c1ccccc1)n1ccnc1 [CLOTRIMAZOLE, 1-[(2-chlorophenyl)diphenylmethyl]-1H-imidazole]	10.2%	100%	
CC(=O)OC[C@H]1O[C@@H](Oc2cc(OC(C)=O)c3c(=O)cc(-c4ccc(OC(C)=O)cc4)oc3c2)[C@H](OC(C)=O)[C@@H](OC(C)=O)[C@@H]1OC(C)=O [COSMOSIIN HEXAACETATE]	12.9%	100%	
C=C1C(=O)OC2CC1C(OC(C)=O)CC(C)=CCCC(C)=CCCC2(C)O (stereo not drawn) [CRASSIN ACETATE, 12-hydroxy-4,8,12-trimethyl-16-methylidene-15-oxo-14-oxabicyclo[11.3.1]heptadeca-4,8-dien-2-yl acetate]			activity at 10 µM ([1]; Trypanosoma cruzi, TULAHUEN, Fibroblast, 10 uM, Table S1): 0.2%; activity at 10 µM (3T3 fibroblast cells; 10 uM, Table S1): 2.5%

Compound	activity at 10 µM [1, 2]	activity at 10 µM (3T3 fibroblast cells; 10 uM, Table S2)	other results
CC1COC2=C1C(=O)C(=O)c1c2ccc2c1CCCC2(C)C (stereo not drawn) [CRYPTOTANSHINONE, 6,6,14-trimethyl-12-oxatetracyclo[8.7.0.0^{2,7}.0^{11,15}]heptadeca-1(10),2(7),8,11(15)-tetraene-16,17-dione]	4.5%	87%	
C=CC(C1=CC(=O)C=CC1=O)c1ccccc1 (stereo not drawn) [DALBERGIONE, 2-(1-phenylprop-2-en-1-yl)cyclohexa-2,5-diene-1,4-dione]	12.4%	97.5%	
C=CC(C1=CC(=O)C(OC)=CC1=O)c1ccc(O)cc1 (stereo not drawn) [DALBERGIONE, 4-METHOXY-4'-HYDROXY-, 2-[1-(4-hydroxyphenyl)prop-2-en-1-yl]-5-methoxycyclohexa-2,5-diene-1,4-dione]	5.1%	94.8%	
C#C[C@]1(O)CC[C@H]2[C@@H]3CCC4=Cc5oncc5C[C@]4(C)[C@H]3CC[C@@]21C [DANAZOL, (1S,2R,13R,14S,17R,18S)-17-ethynyl-2,18-dimethyl-7-oxa-6-azapentacyclo[11.7.0.0^{2,10}.0^{4,8}.0^{14,18}]icosa-4(8),5,9-trien-17-ol]	0.9%	90.2%	EC50 ([1]; Trypanosoma cruzi, TULAHUEN, Fibroblast, Table S2, amastigotes, read-out: T. cruzi EC50): 6.97 µM
CC1(C)C=CC(=O)C2(C)C1CC(=O)C1(C)C2CCC2(C)C(c3ccoc3)OC(=O)C3OC321 (stereo not drawn) [DEACETOXY-7-OXISOGEDUNIN, 7-(furan-3-yl)-1,8,12,16,16-pentamethyl-3,6-dioxapentacyclo[9.8.0.0^{2,4}.0^{2,8}.0^{12,17}]nonadec-14-ene-5,13,19-trione]	3.9%	100%	
CC1(C)C(=O)C=CC2(C)C1CC(=O)C1(C)C2CCC2(C)C(c3ccoc3)OC(=O)C3OC321 (stereo not drawn) [DEACETOXY-7-OXOGEDUNIN, 7-(furan-3-yl)-1,8,12,16,16-pentamethyl-3,6-dioxapentacyclo[9.8.0.0^{2,4}.0^{2,8}.0^{12,17}]nonadec-13-ene-5,15,19-trione]	4.9%	75.8%	
CC1(C)C(=O)C=CC2(C)C1CC(O)C1(C)C2CCC2(C)C(c3ccoc3)OC(=O)C3OC321 (stereo not drawn) [DEACETYLGEDUNIN, 7-(furan-3-yl)-19-hydroxy-1,8,12,16,16-pentamethyl-3,6-dioxapentacyclo[9.8.0.0^{2,4}.0^{2,8}.0^{12,17}]nonadec-13-ene-5,15-dione]	4.4%	76%	
CC1(C)C2CC(=O)O[C@@]3(C)C4=CC(=O)O[C@@H](c5ccoc5)[C@]4(C)CCC3[C@@]2(C)C=C[C@H]1O (stereo partly drawn) [DEOX[…]]	13.2%	82.7%	
CC(C)=CCc1c(O)cc2occ(-c3ccc4c(c3)OCO4)c(=O)c2c1O [DERRUBONE]	22.8%	75.4%	
CC(=O)O[C@@H]1CC2C(C)(C)C(=O)CC[C@]2(C)C2CC[C@]3(C)C(=CC(=O)O[C@H]3c3ccoc3)[C@@]21C (stereo partly drawn) [DIHYDRODEOXYGEDUNIN]			T. cruzi % growth @ 10 uM (Amastigotes) ([1]; 10 uM, Table S2): 23.4%; Mammalian (3T3) cell % growth at 10 uM (3T3 fibroblast cells; 10 uM, Table S2): 83.8%
CC(=O)OC1CC2C(C)(C)C(=O)CCC2(C)C2CCC3(C)C(c4ccoc4)OC(=O)C4OC43C12C (stereo not drawn) [DIHYDROGEDUNIN, 7-(furan-3-yl)-1,8,12,16,16-pentamethyl-5,15-dioxo-3,6-dioxapentacyclo[9.8.0.0^{2,4}.0^{2,8}.0^{12,17}]nonadecan-19-yl acetate]	5.8%	81.4%	
COc1c(CC(=O)c2cc3c(cc2O)OC(C)(C)C(O)C3)ccc2c1C=CC(C)(C)O2 (stereo not drawn) [DIHYDROMUNDULETONE]	4.4%	81.3%	
CC(=O)OC1c2c(ccc3ccc(=O)oc23)OC(C)(C)C1OC(=O)CC(C)C (stereo not drawn) [DIHYDROSAMIDIN, 14-(acetyloxy)-12,12-dimethyl-4-oxo-3,11-dioxatricyclo[8.4.0.0^{2,7}]tetradeca-1(10),2(7),5,8-tetraen-13-yl 3-methylbutanoate]	10.9%	81.2%	
Cc1cccc2c3c(ccc12)C1=C(C(=O)C3=O)C(C)CO1 (stereo not drawn) [DIHYDROTANSHINONE I, 6,14-dimethyl-12-oxatetracyclo[8.7.0.0^{2,7}.0^{11,15}]heptadeca-1(10),2(7),3,5,8,11(15)-hexaene-16,17-dione]	4.8%	77.1%	
Clc1ccc(COC(Cn2ccnc2)c2ccc(Cl)cc2Cl)cc1 (stereo not drawn) [ECONAZOLE, 1-{2-[(4-chlorophenyl)methoxy]-2-(2,4-dichlorophenyl)ethyl}-1H-imidazole]	2.4%	100%	
